Data set [1] can be described thus: Liver microsomal metabolic stability, human. The data set is classed as in vitro ADME. The following applies: % remaining after 60 minutes, 1 μM compound, 0.5 mg/mL protein. The method, then: (§1) (f) Microsomal Stability Assays
(§2) Liver Microsomal Metabolic Stability
(§3) Working stocks were initially diluted to a concentration of 40.0 μM in 0.1 M potassium phosphate buffer (pH 7.4) before addition to the reaction vials. CD-1 mouse (male) or pooled human liver microsomes (Corning Gentest) were utilized at a final concentration of 0.5 mg/mL (protein). Duplicate wells were used for each time point (0 and 60 minutes). Reactions were carried out at 37° C. in an orbital shaker at 175 rpm, and the final DMSO concentration was kept constant at 0.1%. The final volume for each reaction was 100 μL, which includes the addition of an NADPH-Regeneration Solution (NRS) mix. This NRS mix is comprised of glucose 6-phosphate dehydrogenase, NADP+, MgCl2, and glucose 6-phosphate. Upon completion of the 60 minute time point, reactions were terminated by the addition of 2-volumes (200 μL) of ice-cold, acetonitrile containing 0.5% formic acid and internal standard. Samples were then centrifuged at 4,000 rpm for 10 minutes to remove debris and precipitated protein. Approximately 150 μL of supernatant was subsequently transferred to a new 96 well microplate for LC/MS analysis:
(§4) Narrow-window mass extraction LC-MS analysis was performed for all samples in this study using a Waters Xevo quadrupole time-of-flight (QTof) mass spectrometer to determine relative peak areas of test compounds. The percent remaining values are calculated using the following equations: % remaining=(A)/A0×100
(§5) A is area response after incubation
(§6) A0 is area response at initial time point

The target of data set [2] is BTB domain of BCL6 / SMRT BBD peptide (Homo sapiens (Human), UniProt P41182). In words: BCL6-BTB-SMRT peptide inhibition fluorescence polarization (FP) screen. The following applies: 1.25 uM BCL6-BTB, 20 nM Bodipy-TMR SMRT peptide probe; lower limit of assay 1 uM. The data set is classed as binding. How it is done:
(a) BCL6-BTB-SMRT Peptide Inhibition Fluorescence Polarization (FP) Screen
Compounds were dissolved in 100% DMSO at 10 mM, assayed fresh, and then stored at −20° C. for repeat studies and future work. The reaction mixture consists of 1.25 uM of the 25 kd BCL6-BTB domain (Thioredoxin-His6-STag-TEV-biotinylation-thrombin-BCL6 amino acids 1-129) plus 20 nM of the peptide probe Ac-GSLVATVKEAGRSIHEIPA (SEQ ID NO:1) with 16 amino-acids (16-mer peptide) from the SMRT BBD (1414-1429) with a Bodipy-TMR fluorescent label on the lysine. […] 20 ul of this assay mixture was added to each well of the 384 well plates with the exception of the control wells that contained no protein (for setting the minimum FP value). Compounds were directly sprayed using an HP D300 Digital Dispenser from 10 mM DMSO stocks onto black 384 well plates (greiner bio-one #781900) in a concentration range from 1 uM to 500 uM (10 points in duplicate). The assay was equilibrated for 1 hour prior to reading the FP values (Ex 540 nm/Em 580 nm) with a Perkin Elmer Envision plate reader. The results were curve fitted and IC50 values were calculated using the BioAssay software from CambridgeSoft.
For orientation: Polarisation of emitted light reports the rotation of a fluorescent probe.

In data set [3] the test system is BCL6 reporter construct in SuDHL4-3xBCL6-TK-Luc cells. The data set can be described thus: Cell-based BCL6 reporter luciferase assay. Particulars: 48 h, two days. How it is done:
(c) Cell-Based Luciferase Assay:
A BCL6 reporter construct containing three copies of the consensus BCL6 binding site, the TK promoter, and the firefly luciferase gene was stably expressed in SuDHL4 cells after lentivirus infection and selection with Blasticidin. SuDHL4-3xBCL6-TK-Luc cells were seeded into a Viewplate 384-well assay dish at 15,000 cells/well in 25 ul medium (Alpha-MEM high glucose containing 10% FBS, 25 mM HEPES, […] GlutaMAX, 100 ug/ml Normocin, and […] Gentamycin, Invitrogen). A HP D300 digital dispenser was used to dose cells with DMSO or test compounds across a 10-point range of concentrations (high dose of 10 uM), and cultures were grown in a humidified 5% CO2 incubator at 37° C. After two days, plates were removed from incubator and equilibrated to room temperature. An equal volume of neolite reporter gene assay reagent was added to each well, and samples were processed according to manufacturer's instructions (Perkin Elmer). Luminescent signal was measured using an Envision™ plate reader equipped with a US-Luminescence detector.

Another data set deals with Karpas422 cells. In words: Tumor cell growth inhibition assay. The data set is classed as cell-based. The following applies: Homo sapiens, KARPAS-422, 144 h, six days, ATPlite, read-out: GI Karpas EC50. How it is done:
(d) Tumor Cell Growth Inhibition Assay:
Karpas422 cells were seeded into a 96-well plate at 2,000 cells/well in 150 ul medium (Alpha-MEM containing 10% FBS, […] Normocin, and […] Gentamycin, Invitrogen). A HP D300 digital dispenser was used to dose cells with DMSO or test compounds across a 10-point range of concentrations (high dose of 5 uM), and cultures were grown in a humidified 5% CO2 incubator at 37° C. After six days, plates were removed from incubator and equilibrated to room temperature. An equal volume of ATPlite assay reagent was added to each well, and samples were processed according to manufacturer's instructions (Perkin Elmer). Luminescent signal was measured using an Envision plate reader equipped with a US-Luminescence detector.
For orientation: ATP-based viability assays read luminescence as a measure of living cells.

For a further data set, the target named is BCL6 BTB domain (Homo sapiens (Human), UniProt P41182). In words: Surface plasmon resonance (SPR) assay. The data set is classed as binding. Particulars: single cycle kinetic analysis, Biacore T200. How it is done:
(b) Surface Plasmon Resonance (SPR) Assay
SPR studies were performed using a Biacore™ T200 instrument (GE Health Sciences Inc.). The BCL6 BTB protein used in the FP assay was biotinylated using the site specific biotinylating enzyme BirA, and then cleaved with TEV protease to produce the BCL6 BTB domain (biotin-thrombin-BCL6 amino acids 1-129; 17 kd) that was use in SPR. This protein was stably captured (1000 RU) to streptavidin coupled SA chips (BR-1005-31, GE Health Sciences Inc.) according to the manufacture's protocol. Compounds were dissolved in 100% DMSO at 10 mM and 2-fold serial dilutions were done in 100% DMSO. For SPR analysis the serially titrated compounds were diluted 1/20 into buffer (10 mM HEPES pH7.4, 150 mM NaCl, 0.05% Tween-20, 3 mM EDTA) giving a final concentration of 5% DMSO. The Biacore flow rate was set at 100 ul/min. For KD determinations, single cycle kinetic analysis was performed with an on time of 60 seconds, and an off time of 300 seconds. Curve fitting and KD calculations were done with the Biacore T200 Evaluation software (GE Health Sciences Inc).
On the technique in general: Surface plasmon resonance follows binding to a sensor surface in real time, without labels.

A short description of data set [4]: Liver microsomal metabolic stability, mouse. The following applies: % remaining after 60 minutes, 1 μM compound, 0.5 mg/mL protein. The data set is classed as in vitro ADME. How it is done: as §1, §2, §3, §4, §5, §6
The conditions of data set [5]: reported; limits its use in animal studies; cited from earlier work.

Structures are written as SMILES.

Usually IC50 stands for the concentration at which inhibition is half-maximal. The low end stands for higher potency, the high end for lower potency. What is called EC50 is the concentration needed to bring the measured effect to its halfway point. A word on the Kd: it is a measure of binding affinity in units of concentration. Low values mean tighter binding, high ones weaker binding.

In the case of `CNC(=O)COc1cc2cc(Nc3nc(N4CC5CCC(C4)C5(F)F)ncc3Cl)ccc2n(C)c1=O` [Compound X-3], the “Human Liver Microsomes (HLM, % @ 1 h)” value in data set [1] stood at 44%. The IC50 was 1800 nM in data set [2] and 643 nM in data set [3]. Moreover, in the data set on Karpas422 cells, the EC50 was 37.8 nM. The Kd on BCL6 BTB domain came out at 15.7 nM. In addition, in data set [4], the “Mouse Liver Microsomes (MLM, % @ 1 h)” value is recorded as 0.5%.
For `CNC(=O)COc1cc2cc(Nc3nc(N4C[C@@H](C)O[C@@H](C)C4)ncc3Cl)ccc2n(C)c1=O` [Compound X-2], the “Human Liver Microsomes (HLM, % @ 1 h)” value in data set [1] is 74%. Besides, the IC50 in data set [2] was 1200 nM; in data set [3], 91.9 nM. Moreover, the EC50 in the data set on Karpas422 cells was determined as 30.6 nM. The Kd on BCL6 BTB domain is 10.3 nM. For the same compound, the “Mouse Liver Microsomes (MLM, % @ 1 h)” value in data set [4] was 70%.
Turning to `CNC(=O)COc1cc2cc(Nc3nc(N4C[C@@H](C)N[C@@H](C)C4)ncc3Cl)ccc2n(C)c1=O` [Compound X-1, 2-((6-((5-chloro-2-((3S,5R)-3,5-dimethylpiperazin-1-yl)pyrimidin-4-yl)amino)-1-methyl-2-oxo-1,2-dihydroquinolin-3-yl)oxy)-N-methylacetamide], the “Human Liver Microsomes (HLM, % @ 1 h)” value in data set [1] was found to be 34%. The half-maximal inhibitory concentration (IC50) was found to be 1600 nM in data set [2] and 433 nM in data set [3]. Besides, in the data set with Karpas422 cells, the EC50 turned out to be 92.6 nM. This compound also yielded a Kd at BCL6 BTB domain of 5.73 nM. For the same compound, the “Mouse Liver Microsomes (MLM, % @ 1 h)” value in data set [4] was found to be 15%.
`CNC(=O)COc1cc2cc(Nc3nc(N4C[C@H](C)C[C@H](C)C4)ncc3Cl)ccc2n(C)c1=O` [BI-3802, reference compound]: the “Human Liver Microsomes (HLM, % @ 1 h)” value in data set [1] came to 25%. For the same compound, the bioavailability result in data set [5] was “poor bioavailability”. The “Mouse Liver Microsomes (MLM, % @ 1 h)” value in data set [4] is given as 13%.
Turning to `CNC(=O)COc1cc2cc(Nc3nc(N4C[C@@H](C)C(F)(F)[C@@H](C)C4)ncc3Cl)ccc2n(C)c1=O` [Ia], the “Human Liver Microsomes (HLM, % @ 1 h)” value in data set [1] was found to be 77%. The figures for the IC50 in data set [2] and in data set [3] were 900 nM and 6.84 nM, respectively. For the same compound, the EC50 in the data set on Karpas422 cells came to 3.36 nM. At BCL6 BTB domain, this compound gave an equilibrium dissociation constant (Kd) of 5.33 nM. Besides, the “Mouse Liver Microsomes (MLM, % @ 1 h)” value in data set [4] worked out at 61%.

The values are drawn from patent publication US11192880B2, “Quinolone compounds as inhibitors of the BCL6 BTB domain protein-protein interaction and/or as BCL6 degraders” (Ontario Institute for Cancer Research (OICR), priority 2017, dated 2021).
